{"source": "ChEMBL document CHEMBL1201862", "about": "“PubChem BioAssay data set” (2004)", "key": {"[1]": {"target": "T1, Corticotropin-releasing factor receptor 2/Corticotropin-releasing factor-binding protein (Homo sapiens, UniProt P24387+Q13324)", "T1 sequence (Q13324 whole entry)": "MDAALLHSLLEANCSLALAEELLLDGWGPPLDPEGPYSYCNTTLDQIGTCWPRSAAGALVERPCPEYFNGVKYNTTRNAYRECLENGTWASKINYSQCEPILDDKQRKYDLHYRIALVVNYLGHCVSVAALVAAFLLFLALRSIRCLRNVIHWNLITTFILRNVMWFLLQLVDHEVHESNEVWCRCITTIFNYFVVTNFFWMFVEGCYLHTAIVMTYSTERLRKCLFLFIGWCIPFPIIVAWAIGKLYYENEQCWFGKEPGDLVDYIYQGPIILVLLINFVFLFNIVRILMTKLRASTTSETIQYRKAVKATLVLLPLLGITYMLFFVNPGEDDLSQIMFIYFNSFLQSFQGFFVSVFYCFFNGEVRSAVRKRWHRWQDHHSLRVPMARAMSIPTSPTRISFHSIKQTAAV", "T1 sequence (P24387 whole entry)": "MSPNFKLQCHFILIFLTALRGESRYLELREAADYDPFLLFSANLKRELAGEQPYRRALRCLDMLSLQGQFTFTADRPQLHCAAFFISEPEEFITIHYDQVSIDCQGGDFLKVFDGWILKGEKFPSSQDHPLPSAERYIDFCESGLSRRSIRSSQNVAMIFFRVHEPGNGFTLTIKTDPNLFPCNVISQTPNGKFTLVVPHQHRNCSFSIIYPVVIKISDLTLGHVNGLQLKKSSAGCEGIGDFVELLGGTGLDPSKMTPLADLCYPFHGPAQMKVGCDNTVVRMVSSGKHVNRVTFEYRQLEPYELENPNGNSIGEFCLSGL", "test": "activators of CRF receptor 2 with binding protein – uHTS hits, confirmation (AID 602473)", "type": "functional", "settings": "read-out: EC50_Mean"}, "[2]": {"target": "T2, Heat shock factor protein 1 (Mus musculus, UniProt P38532)", "T2 sequence (P38532 whole entry)": "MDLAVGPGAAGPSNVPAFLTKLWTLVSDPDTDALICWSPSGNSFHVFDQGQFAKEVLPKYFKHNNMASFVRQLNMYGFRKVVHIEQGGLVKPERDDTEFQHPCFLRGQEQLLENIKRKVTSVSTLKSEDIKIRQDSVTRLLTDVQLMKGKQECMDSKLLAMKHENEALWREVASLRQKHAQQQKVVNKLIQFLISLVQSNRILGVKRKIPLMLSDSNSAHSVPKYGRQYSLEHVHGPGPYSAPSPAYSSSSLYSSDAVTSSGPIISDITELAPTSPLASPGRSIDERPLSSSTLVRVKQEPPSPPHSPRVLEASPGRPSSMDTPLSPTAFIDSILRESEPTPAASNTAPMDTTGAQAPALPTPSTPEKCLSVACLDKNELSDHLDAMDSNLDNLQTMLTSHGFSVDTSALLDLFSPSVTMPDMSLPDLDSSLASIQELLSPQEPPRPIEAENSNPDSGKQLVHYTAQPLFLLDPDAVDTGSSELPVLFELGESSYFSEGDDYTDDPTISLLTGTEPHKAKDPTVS", "test": "enhancement of HSF1-driven luciferase signal – cell-based, NIH3T3, luminescence, dose retest, confirmation (AID 435004);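 further: stress induced by proteasome inhibitor MG132 added 30 min after compound; actives raise luminescence as potentiators of the MG132 stress response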", "type": "functional"}, "Cytochrome P450 3A4": {"target": "Cytochrome P450 3A4 (Homo sapiens, UniProt P08684)", "sequence (P08684 whole entry)": "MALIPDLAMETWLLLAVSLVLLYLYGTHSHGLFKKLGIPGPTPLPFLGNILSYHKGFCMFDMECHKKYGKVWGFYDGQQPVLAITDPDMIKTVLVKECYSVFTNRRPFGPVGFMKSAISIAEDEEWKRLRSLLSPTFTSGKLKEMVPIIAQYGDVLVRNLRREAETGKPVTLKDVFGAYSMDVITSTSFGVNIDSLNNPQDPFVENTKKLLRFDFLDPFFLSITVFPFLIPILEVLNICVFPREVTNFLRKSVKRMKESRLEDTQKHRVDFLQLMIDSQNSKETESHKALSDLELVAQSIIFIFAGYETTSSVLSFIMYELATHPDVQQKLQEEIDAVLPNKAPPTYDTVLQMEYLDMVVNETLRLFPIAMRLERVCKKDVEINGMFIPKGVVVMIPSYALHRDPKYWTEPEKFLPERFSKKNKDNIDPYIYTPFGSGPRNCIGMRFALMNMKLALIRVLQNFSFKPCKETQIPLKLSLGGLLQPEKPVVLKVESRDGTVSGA"}, "Cytochrome P450 1A2": {"target": "T3, Cytochrome P450 1A2 (Homo sapiens, UniProt P05177)", "T3 sequence (P05177 whole entry)": "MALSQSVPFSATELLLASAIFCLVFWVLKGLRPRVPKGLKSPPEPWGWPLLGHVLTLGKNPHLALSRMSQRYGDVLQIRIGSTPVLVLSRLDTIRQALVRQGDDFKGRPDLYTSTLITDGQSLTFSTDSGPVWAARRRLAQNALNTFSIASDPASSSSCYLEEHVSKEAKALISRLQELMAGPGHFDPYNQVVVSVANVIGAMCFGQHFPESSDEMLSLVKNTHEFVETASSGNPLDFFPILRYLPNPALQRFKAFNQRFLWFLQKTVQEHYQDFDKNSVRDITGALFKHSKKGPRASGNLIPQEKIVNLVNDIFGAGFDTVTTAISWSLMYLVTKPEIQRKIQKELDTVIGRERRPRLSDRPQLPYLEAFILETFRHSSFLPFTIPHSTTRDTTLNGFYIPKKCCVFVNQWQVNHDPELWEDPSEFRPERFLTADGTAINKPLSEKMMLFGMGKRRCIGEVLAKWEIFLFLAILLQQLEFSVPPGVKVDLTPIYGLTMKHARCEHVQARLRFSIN"}, "Cytochrome P450 2C19": {"target": "Cytochrome P450 2C19 (Homo sapiens, UniProt P33261)", "sequence (P33261 whole entry)": "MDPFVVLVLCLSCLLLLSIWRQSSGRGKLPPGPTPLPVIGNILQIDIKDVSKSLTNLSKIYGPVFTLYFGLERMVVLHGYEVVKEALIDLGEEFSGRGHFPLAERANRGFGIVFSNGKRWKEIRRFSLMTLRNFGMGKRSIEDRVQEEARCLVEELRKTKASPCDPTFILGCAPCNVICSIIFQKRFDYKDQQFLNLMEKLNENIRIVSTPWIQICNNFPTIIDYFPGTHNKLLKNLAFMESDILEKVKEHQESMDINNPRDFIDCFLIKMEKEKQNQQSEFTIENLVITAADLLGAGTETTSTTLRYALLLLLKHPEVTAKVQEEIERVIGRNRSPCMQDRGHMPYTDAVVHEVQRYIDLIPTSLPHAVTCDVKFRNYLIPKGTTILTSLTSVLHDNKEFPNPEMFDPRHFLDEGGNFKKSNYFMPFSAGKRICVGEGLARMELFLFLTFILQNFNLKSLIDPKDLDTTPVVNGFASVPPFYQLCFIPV", "test": "Cytochrome panel assay with activity outcomes. Panel member name: p450-cyp2c19 Compounds with AC50 equal or less than 10 uM are considered active", "type": "functional", "settings": "read-out: AC50"}, "[3]": {"test": "NIH-3T3 fibroblast cytotoxicity, dose response, cytotoxicity control, cell-based, fluorescence, Alamar Blue, secondary assay (AID 2327);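 further: NIH-3T3 mouse fibroblasts cultured with fluconazole at 8 µg/mL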", "type": "functional"}, "H4": {"tested_on": "H4", "test": "Luminescence Cell-Based Dose Response HTS to Identify Activators of 5'UTR Stem-Loop Driven Prion Protein mRNA Translation in H4 Neuroglioblastoma Cells. [Related pubchem assays: 1829 (Project Summary), 1814 (Primary HTS)]", "type": "functional", "settings": "Homo sapiens"}, "[4]": {"tested_on": "Streptococcus sp. 'group A'", "test": "Streptococcus pyogenes SK(-)GAS viability under kanamycin – luminescence, BacTiterGlo, confirmation, counter-screen for streptokinase expression inhibitor project, dose response (AID 1900)", "type": "functional, organism-based"}, "Streptococcus": {"tested_on": "Streptococcus", "test": "GAS UMAA2166 growth inhibition – luminescence, BacTiterGlo, counter-screen for streptokinase expression inhibitor project, dose response (AID 1915);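 further: potency for reduction of bacterial viability or growth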", "type": "functional, organism-based"}}, "note": "Calls of active or inactive are those of the source.", "data": [{"smiles": "CCOC(=O)/C(=C\\c1ccc(N2CCC(c3ccccc3)=N2)cc1)C(C)=O", "values": [{"measurement": "EC50", "setting": "[1]", "result": "7.05 µM (active)"}]}, {"smiles": "S=C(c1cn(Cc2ccc(Br)cc2)c2ccccc12)N1CCOCC1", "values": [{"measurement": "EC50", "setting": "[2]", "result": "> 260 µM (inactive)"}]}, {"smiles": "O=C(COC(=O)[C@H](Cc1ccccc1)NC(=O)c1ccco1)NCc1ccccc1", "values": [{"measurement": "EC50", "setting": "[1]", "result": "10.4 µM (active)"}]}, {"smiles": "COc1ccc(OC)c(S(=O)(=O)Nc2ccccc2O)c1", "values": [{"measurement": "EC50", "setting": "[2]", "result": "> 260 µM (inactive)"}]}, {"smiles": "O=C(Nc1cccn(Cc2c(Cl)cccc2Cl)c1=O)c1ccc(Cl)cc1Cl", "values": [{"measurement": "AC50", "setting": "Cytochrome P450 3A4", "result": "14.1 µM (inconclusive)"}, {"measurement": "AC50", "setting": "Cytochrome P450 1A2", "result": "2.82 µM (inconclusive)"}]}, {"smiles": "CC(C)N1C(=O)/C(=C\\c2c[nH]c3ccccc23)S/C1=N\\c1ccccc1", "values": [{"measurement": "AC50", "setting": "Cytochrome P450 3A4", "result": "22.4 µM (inconclusive)"}, {"measurement": "AC50", "setting": "Cytochrome P450 2C19", "result": "2 µM (inconclusive)"}, {"measurement": "AC50", "setting": "Cytochrome P450 1A2", "result": "4.47 µM (inconclusive)"}]}, {"smiles": "O=C(COc1ccccc1)NC(=S)Nc1cccc2cc(O)ccc12", "values": [{"measurement": "EC50", "setting": "[2]", "result": "> 260 µM (inactive)"}]}, {"smiles": "Cc1ccc(-c2nc(-c3cccnc3)no2)c(C)c1", "values": [{"measurement": "EC50", "setting": "[3]", "result": "> 150 µM (inactive)"}]}, {"smiles": "Nn1c(SCC(=O)N2CCOCC2)nnc1C1CC1", "values": [{"measurement": "EC50", "setting": "[2]", "result": "> 260 µM (inactive)"}]}, {"smiles": "CC(=O)c1ccc(N2CCN(C(=O)c3[nH]nc4ccccc34)CC2)cc1", "values": [{"measurement": "EC50", "setting": "[2]", "result": "> 260 µM (inactive)"}]}, {"smiles": "O=C(NCc1cccc(Cl)c1)c1cccc(S(=O)(=O)N2CCCC2)c1", "values": [{"measurement": "EC50", "setting": "[1]", "result": "> 53 µM (inactive)"}]}, {"smiles": "N=C(NOC(=O)/C=C/c1ccccc1Cl)c1cccnc1", "values": [{"measurement": "EC50", "setting": "H4", "result": "22.8 µM (active)"}]}, {"smiles": "COc1ccc(NC(=O)C(NCC(C)C)c2ccccc2)cc1Cl", "note": "(centres undefined)", "values": [{"measurement": "EC50", "setting": "[2]", "result": "> 260 µM (inactive)"}]}, {"smiles": "CN=C(S)NCCC(c1ccccc1)c1ccccc1", "values": [{"measurement": "EC50", "setting": "[2]", "result": "> 260 µM (inactive)"}]}, {"smiles": "CCOc1ccc(N2C(=O)/C(=C\\NNC(=O)C3COc4ccccc4O3)c3ccccc3C2=O)cc1", "note": "(centres undefined)", "values": [{"measurement": "EC50", "setting": "[4]", "result": "1.63 µM (active)"}, {"measurement": "EC50", "setting": "Streptococcus", "result": "5.75 µM (active)"}]}, {"smiles": "C=CCSC1=C(C#N)C(c2cccc(OC)c2)CC(=O)N1", "note": "(centres undefined)", "values": [{"measurement": "EC50", "setting": "[2]", "result": "> 260 µM (inactive)"}]}, {"smiles": "CC/C(=N/Cc1ccc(Cl)c(Cl)c1)c1nc(-c2ccco2)oc1O", "values": [{"measurement": "EC50", "setting": "[2]", "result": "20 µM (active)"}]}, {"smiles": "Nc1c(-c2ccsc2)cnc2ncnn12", "values": [{"measurement": "EC50", "setting": "[2]", "result": "> 260 µM (inactive)"}]}, {"smiles": "CC(c1ccccc1C(O)(c1ccccc1)c1ccccc1)N(C)C", "note": "(centres undefined)", "values": [{"measurement": "EC50", "setting": "[1]", "result": "4.62 µM (active)"}]}, {"smiles": "Cc1noc(C)c1C(=O)N1CCC2(CCCN(C(=O)Nc3cccc(F)c3)C2)CC1", "values": [{"measurement": "AC50", "setting": "Cytochrome P450 3A4", "result": "15.8 µM (inconclusive)"}, {"measurement": "AC50", "setting": "Cytochrome P450 1A2", "result": "15.8 µM (inconclusive)"}]}, {"smiles": "Cc1cccc(-n2nnc3cnn(C)c3c2=O)c1", "values": [{"measurement": "AC50", "setting": "Cytochrome P450 3A4", "result": "31.6 µM (inconclusive)"}, {"measurement": "AC50", "setting": "Cytochrome P450 1A2", "result": "12.6 µM (inconclusive)"}]}, {"smiles": "CCOC(=O)c1ccc(NC(=O)CCS(=O)(=O)c2ccc(Br)s2)cc1", "values": [{"measurement": "EC50", "setting": "[2]", "result": "> 260 µM (inactive)"}]}, {"smiles": "Cc1cccn2c(=O)c3cc(C#N)/c(=N\\C(=O)c4cccnc4)n(CC4CCCO4)c3nc12", "note": "(centres undefined)", "values": [{"measurement": "EC50", "setting": "[1]", "result": "> 53 µM (inactive)"}]}, {"smiles": "COc1ccc(-c2nnc3ccc(SCC(=O)NCC4CCCO4)nn23)cc1", "note": "(centres undefined)", "values": [{"measurement": "EC50", "setting": "[2]", "result": "> 260 µM (inactive)"}]}, {"smiles": "COCCn1c(=O)c(-c2cccc(F)c2)nc2cncnc21", "values": [{"measurement": "AC50", "setting": "Cytochrome P450 3A4", "result": "15.8 µM (inconclusive)"}, {"measurement": "AC50", "setting": "Cytochrome P450 2C19", "result": "39.8 µM (inconclusive)"}]}, {"smiles": "CC(C)(C)C(=O)N(CCN(C(=O)C(C)(C)C)c1ccccc1)c1ccccc1", "values": [{"measurement": "AC50", "setting": "Cytochrome P450 3A4", "result": "7.08 µM (inconclusive)"}, {"measurement": "AC50", "setting": "Cytochrome P450 2C19", "result": "8.91 µM (inconclusive)"}]}]}
